This passage reports solubility in methanol results from patent US20050154052A1, “Novel crystalline forms of (s)-citalopram oxalate” (Hetero Drugs Limited, priority 2003, published 2005).

Where a name gives a salt, the structure may show the parent alone.

A short description of this data set: Solubility of (S)-citalopram oxalate in alcohol. The data set is classed as physicochemical. The following applies: 5 gm in 35 ml of methanol at 25° C. The text has this:
According to another aspect of the present invention there is provided a process for preparation of the Form II of (S)-citalopram oxalate. Thus (S)-citalopram oxalate is mixed with an alcohol. (S)-Citalopram oxalate prepared by the process described in, for example, EP 0347066 or the Form I of (S)-citalopram oxalate may be used. The alcohol is either methanol or ethanol or isopropyl alcohol. The solubility of (S)-citalopram oxalate depends on the alcohol used and volume of the alcohol to (S)-citalopram oxalate. For example, 5 gm of (S)-citalopram oxalate is soluble in 35 ml of methanol at 25° C. If (S)-citalopram oxalate is soluble in the conditions of experiment, the Form II of (S)-citalopram oxalate is precipitated from the solution. The techniques such as cooling, partial removal of the solvent, addition of anti-solvent like diisopropyl ether may be used to precipitate the Form II of (S)-citalopram oxalate. If the (S)-citalopram oxalate is insoluble in the alcohol, after mixing (S)-citalopram oxalate and the alcohol the solid is filtered from the contents to obtain Form II of (S)-citalopram oxalate.

As for `CN(C)CCC[C@@]1(c2ccc(F)cc2)OCc2cc(C#N)ccc21` [(S)-citalopram oxalate, 1(S)-[3-(Dimethylamino)propyl]-1-(4-fluorophenyl)-1,3-dihydro-5-isobenzofurancarbonitrile], the solubility in methanol result was “soluble”.
